Results on two substances are retold here after patent US6410685B1, “Antistress agents and functional foods” (Calpis Co., Ltd., priority 1997, dated 2002).

This assay concerns Wister rats exposed to cold stress. Kind of assay: Blood pressure by tail-cuff method in rats exposed to cold stress. It counts as in vivo, rat. The settings on record: Example 5, day 10, 3 mg/kg body weight of single tripeptide oral. From the text:
24 male Wister rats (body weight about 300 g) were preliminarily fed for one week. During the preliminary feeding period and the experimental period, the rats were restrictively fed with commercial diet (trade name “CE-2” manufactured by NIHON CREA CO.), and allowed to take water ad libitum.
After the preliminary feeding period, the rats were divided into three groups (eight rats each), namely, (1) the group not exposed to stress and given saline, (2) the group exposed to stress and given saline, and (3) the group exposed to stress, and given VPP and IPP. The animals of groups (2) and (3) were exposed to stress for 9 days by putting them in a cold room (4° C.) for 4 hours per one day.
On the day 10, rats of groups (1) and (2) were given 1 ml of saline, and rats of group (3) were given 1 ml of saline containing 3 mg/kg body weight each of IPP and VPP synthesized in Example 3, by forcible administration into stomach via an oral sonde. After the administration, the rats of groups (2) and (3) were exposed to cold stress for 4 hours. Two hours after finishing the stress loading, blood pressure of the rats in each group was measured by tail-cuff method using a non-warming, non-invasive rat sphygmomanometer (Type PE-300, manufactured by CSI CO.).
After the preliminary feeding period, the rats were divided into three groups (eight rats each), namely, (1) the group given saline, (2) the group given VPP, and (3) the group given IPP. The rats of groups (1) to (3) were exposed to stress for 9 days by, as in Example 4, putting them in a cold room (4° C.) for 4 hours per one day.
On the day 10, rats of group (1) were given 1 ml of saline, and rats of group (2) and (3) were given 1 ml of saline containing 3 mg/kg body weight of IPP or 3 mg/kg body weight of VPP, respectively, synthesized in Example 3, by forcible administration into stomach via an oral sonde. After the administration, the rats of groups (1) to (3) were exposed to cold stress for 4 hours, and blood pressure was measured as in Example 4.
The test was carried out in the same way as in Example 5 except that the group (1) rats were given 2 ml of saline, and the rats in group (2) were given 5 ml/kg body weight of the fermented milk obtained in Example 1, and the rats in group (3) were given 2 ml of saline containing 150 mg/kg of the purified tripeptide fraction powders obtained in Example 2, respectively. After the administration of the samples and exposure to stress, the blood pressure of each rat was measured.

Marks after values point to notes of the source that are not given here.

As for Val-Pro-Pro [VPP], the “Diastolic Blood Pressure” value was 101* mmHg and the “Systolic Blood Pressure” value is 131* mmHg.
As for Ile-Pro-Pro [IPP], the “Diastolic Blood Pressure” value is listed as 102* mmHg and the “Systolic Blood Pressure” value is reported as 130* mmHg.
